Experimental data reported in patent US11453683B1, “KRas G12D inhibitors” (Mirati Therapeutics, Inc., priority 2019, dated 2022).
Where a name gives a salt, the structure may show the parent alone.

System: KRas G12D-mediated phosphorylation of ERK
Assay: Inhibition of KRas G12D-mediated phosphorylation of ERK in AGS cells
Type: cell-based
Details: Homo sapiens; AGS cells expressing G12D, 3 hours, phospho-ERK normalized to GAPDH
In short: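 Fixed, methanol-permeabilized; phospho-ERK (Thr202/Tyr204) by in-cell immunofluorescence normalized to GAPDH. Percent of DMSO control, IC50 by 4-parameter fit.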

Structure (SMILES) | IC50
CO[C@H]1CN2CCC[C@]2(COc2nc(N3CC4CCC(C3)N4)c3cnc(-c4cc(O)cc5cccc(F)c45)c(F)c3n2)C1 (stereo in doubt) [Example 406, 4-(4-((1R,5S)-3,8-diazabicyclo[3.2.1]octan-3-yl)-8-fluoro-2-((2-methoxytetrahydro-1H-pyrrolizin-7a(5H)-yl)methoxy)pyrido[4,3-d]pyrimidin-7-yl)-5-fluoronaphthalen-2-ol] | 0.44 µM
Fc1c(-c2cccc3cccc(Cl)c23)ncc2c(N3CC4CCC(C3)N4)nc(OCC34CCCN3C[C@H](F)C4)nc12 (stereo partly drawn) [Example 226, 4-((1R,5S)-3,8-diazabicyclo[3.2.1]octan-3-yl)-7-(8-chloronaphthalen-1-yl)-8-fluoro-2-((2-fluorotetrahydro-1H-pyrrolizin-7a(5H)-yl)methoxy)pyrido[4,3-d]pyrimidine bis-hydrochloride] | 6.75 µM
Cn1nccc1COc1nc(N2C[C@H]3CC[C@@H](C2)N3)c2cnc(-c3cc(O)cc4ccccc34)c(F)c2n1 [Example 5, 4-(4-((1R,5S)-3,8-diazabicyclo[3.2.1]octan-3-yl)-8-fluoro-2-((1-methyl-1H-pyrazol-5-yl)methoxy)pyrido[4,3-d]pyrimidin-7-yl)naphthalen-2-ol] | 8.19 µM
CCc1cccc2cc(O)cc(-c3ncc4c(N5C[C@H]6CC[C@@H](C5)N6)nc(OC[C@@]56CCCN5C[C@H](F)C6)nc4c3F)c12 [Example 259, 4-(4-((1R,5S)-3,8-diazabicyclo[3.2.1]octan-3-yl)-8-fluoro-2-(((2R,7aS)-2-fluorotetrahydro-1H-pyrrolizin-7a(5H)-yl)methoxy)pyrido[4,3-d]pyrimidin-7-yl)-5-ethylnaphthalen-2-ol] | 0.0039 µM
CN(C)C1CN(c2nc(N3C[C@H]4CC[C@@H](C3)N4)c3cnc(-c4cc(O)cc5ccccc45)c(F)c3n2)C1 [Example 120, 4-(4-((1R,5S)-3,8-diazabicyclo[3.2.1]octan-3-yl)-2-(3-(dimethylamino)azetidin-1-yl)-8-fluoropyrido[4,3-d]pyrimidin-7-yl)naphthalen-2-ol bis(2,2,2-trifluoroacetate)] | 2.09 µM
Oc1cc(-c2ncc3c(N4C[C@H]5CC[C@@H](C4)N5)nc(N4CC5(CCOC5)C4)nc3c2F)c2ccccc2c1 [Example 76, 4-(4-((1R,5S)-3,8-diazabicyclo[3.2.1]octan-3-yl)-8-fluoro-2-(6-oxa-2-azaspiro[3.4]octan-2-yl)pyrido[4,3-d]pyrimidin-7-yl)naphthalen-2-ol] | 7.41 µM
CCCOc1nc(N2C[C@H]3CC[C@@H](C2)N3)c2cnc(-c3cc(O)cc4ccccc34)c(F)c2n1 [Example 47, 4-(4-((1R,5S)-3,8-diazabicyclo[3.2.1]octan-3-yl)-8-fluoro-2-propoxypyrido[4,3-d]pyrimidin-7-yl)naphthalen-2-ol] | 4.45 µM
CCc1c(F)ccc2cc(O)cc(-c3ncc4c(N5C[C@H]6CC[C@@H](C5)N6)nc(OC[C@]56CCCN5[C@@H](COC(=O)N(C)C)CC6)nc4c3F)c12 [Example 441, ((3R,7aR)-7a-(((4-((1R,5S)-3,8-diazabicyclo[3.2.1]octan-3-yl)-7-(8-ethyl-7-fluoro-3-hydroxynaphthalen-1-yl)-8-fluoropyrido[4,3-d]pyrimidin-2-yl)oxy)methyl)hexahydro-1H-pyrrolizin-3-yl)methyl dimethylcarbamate] | 0.0041 µM
Fc1c(-c2cncc3cccc(Cl)c23)ncc2c(N3C[C@H]4CC[C@@H](C3)N4)nc(OC[C@]34CCCN3C[C@@H](F)C4)nc12 [Example 203, 4-((1R,5S)-3,8-diazabicyclo[3.2.1]octan-3-yl)-7-(5-chloroisoquinolin-4-yl)-8-fluoro-2-(((2S,7aR)-2-fluorotetrahydro-1H-pyrrolizin-7a(5H)-yl)methoxy)pyrido[4,3-d]pyrimidine] | 2.18 µM
N#Cc1cccc2cccc(-c3ncc4c(N5C[C@H]6CC[C@@H](C5)N6)nc(OCC56CCCN5CCC6)nc4c3F)c12 [Example 198, 8-(4-((1R,5S)-3,8-diazabicyclo[3.2.1]octan-3-yl)-8-fluoro-2-((tetrahydro-1H-pyrrolizin-7a(5H)-yl)methoxy)pyrido[4,3-d]pyrimidin-7-yl)-1-naphthonitrile] | 2.43 µM
COCCCOc1nc(N2C[C@H]3CC[C@@H](C2)N3)c2cnc(-c3cc(O)cc4ccccc34)c(F)c2n1 [Example 68, 4-(4-((1R,5S)-3,8-diazabicyclo[3.2.1]octan-3-yl)-8-fluoro-2-(3-methoxypropoxy)pyrido[4,3-d]pyrimidin-7-yl)naphthalen-2-ol] | 7.53 µM
Oc1ccc(OC(F)(F)F)c(-c2ncc3c(N4C[C@H]5CC[C@@H](C4)N5)nc(OCC45CCCN4CCC5)nc3c2F)c1 [Example 341, 3-(4-((1R,5S)-3,8-diazabicyclo[3.2.1]octan-3-yl)-8-fluoro-2-((tetrahydro-1H-pyrrolizin-7a(5H)-yl)methoxy)pyrido[4,3-d]pyrimidin-7-yl)-4-(trifluoromethoxy)phenol] | 0.837 µM
Fc1ccc2cccc(-c3ncc4c(N5CC6CCC(C5)N6)nc(OC[C@@]56CCCN5C[C@H](F)C6)nc4c3F)c2c1Cl (racemic) [Example 336, 4-((1R,5S)-3,8-diazabicyclo[3.2.1]octan-3-yl)-7-(8-chloro-7-fluoronaphthalen-1-yl)-8-fluoro-2-((2-fluorotetrahydro-1H-pyrrolizin-7a(5H)-yl)methoxy)pyrido[4,3-d]pyrimidine] | 1.06 µM
O[C@@H]1C[C@@H]2CN(c3nc(N4CCC4)nc4c(F)c(-c5cccc6cccc(Cl)c56)ncc34)C[C@H]1N2 [Example 152, (1R,5R,6R)-3-(2-(azetidin-1-yl)-7-(8-chloronaphthalen-1-yl)-8-fluoropyrido[4,3-d]pyrimidin-4-yl)-3,8-diazabicyclo[3.2.1]octan-6-ol] | > 50 µM
O=C(OC[C@H]1CC[C@@]2(COc3nc(N4CC5CCC(C4)N5)c4cnc(-c5cccc6cccc(Cl)c56)c(F)c4n3)CCCN12)N1CCCC1 [Example 443, ((3R,7aR)-7a-(((4-(3,8-diazabicyclo[3.2.1]octan-3-yl)-7-(8-chloronaphthalen-1-yl)-8-fluoropyrido[4,3-d]pyrimidin-2-yl)oxy)methyl)hexahydro-1H-pyrrolizin-3-yl)methyl pyrrolidine-1-carboxylate] | 0.16 µM
CN1CCC[C@H]1COc1nc(N2CC3CCC(Cl)(C2)N3)c2cnc(-c3cc(O)cc4ccccc34)c(F)c2n1 (stereo partly drawn) [Example 160, 4-(4-(1-chloro-3,8-diazabicyclo[3.2.1]octan-3-yl)-8-fluoro-2-(((S)-1-methylpyrrolidin-2-yl)methoxy)pyrido[4,3-d]pyrimidin-7-yl)naphthalen-2-ol bis(2,2,2-trifluoroacetate)] | 6.93 µM
CCc1cccc2cncc(-c3ncc4c(N5CC6CCC(C5)N6)nc(OCC56CCCN5C[C@H](F)C6)nc4c3F)c12 (mixture of isomers) [Example 324, 4-((1R,5S)-3,8-diazabicyclo[3.2.1]octan-3-yl)-7-(5-ethylisoquinolin-4-yl)-8-fluoro-2-((2-fluorotetrahydro-1H-pyrrolizin-7a(5H)-yl)methoxy)pyrido[4,3-d]pyrimidine] | 0.864 µM
Cc1cccc(-c2ncc3c(N4C[C@H]5CC[C@@H](C4)N5)nc(OCC45CCCN4CCC5)nc3c2F)c1Cl [Example 276, 4-((1R,5S)-3,8-diazabicyclo[3.2.1]octan-3-yl)-7-(2-chloro-3-methylphenyl)-8-fluoro-2-((hexahydro-1H-pyrrolizin-7a-yl)methoxy)pyrido[4,3-d]pyrimidine] | 3.79 µM
Oc1cc(-c2ncc3c(N4C[C@H]5CC[C@@H](C4)N5)nc(OCCc4cccnc4)nc3c2F)c2ccccc2c1 [Example 106, 4-(4-((1R,5S)-3,8-diazabicyclo[3.2.1]octan-3-yl)-8-fluoro-2-(2-(pyridin-3-yl)ethoxy)pyrido[4,3-d]pyrimidin-7-yl)naphthalen-2-ol] | 3.1 µM
Fc1c(-c2cccc3cccc(CC(F)F)c23)ncc2c(N3C[C@H]4CC[C@@H](C3)N4)nc(OCC34CCCN3CCC4)nc12 [Example 247, 4-((1R,5S)-3,8-diazabicyclo[3.2.1]octan-3-yl)-7-(8-(2,2-difluoroethyl)naphthalen-1-yl)-8-fluoro-2-((hexahydro-1H-pyrrolizin-7a-yl)methoxy)pyrido[4,3-d]pyrimidine] | 4.31 µM
Fc1cccc(-c2ncc3c(N4C[C@H]5CC[C@@H](C4)N5)nc(OCC45CCCN4CCC5)nc3c2F)c1C(F)(F)F [Example 292, 4-((1R,5S)-3,8-diazabicyclo[3.2.1]octan-3-yl)-8-fluoro-7-(3-fluoro-2-(trifluoromethyl)phenyl)-2-((tetrahydro-1H-pyrrolizin-7a(5H)-yl)methoxy)pyrido[4,3-d]pyrimidine] | 1.7 µM
Nc1nccn1CCOc1nc(N2CC3CCC(C2)N3)c2cnc(-c3cccc4cccc(Cl)c34)c(F)c2n1 [Example 178, 1-[2-[7-(8-chloro-1-naphthyl)-4-(3,8-diazabicyclo[3.2.1]octan-3-yl)-8-fluoro-pyrido[4,3-d]pyrimidin-2-yl]oxyethyl]imidazol-2-amine] | > 16.7 µM
Fc1c(-c2cccc3ccccc23)ncc2c(N3C[C@H]4CC[C@@H](C3)N4)nc(OCC34CCCN3CCC4)nc12 [Example 186, 4-((1R,5S)-3,8-diazabicyclo[3.2.1]octan-3-yl)-8-fluoro-7-(naphthalen-1-yl)-2-((tetrahydro-1H-pyrrolizin-7a(5H)-yl)methoxy)pyrido[4,3-d]pyrimidine] | 3.38 µM
Cc1ccc2[nH]ncc2c1-c1ncc2c(N3CC4CCC(C3)N4)nc(OCC34CCCN3C[C@H](F)C4)nc2c1F (mixture of isomers) [Example 331, 4-((1R,5S)-3,8-diazabicyclo[3.2.1]octan-3-yl)-8-fluoro-2-((2-fluorotetrahydro-1H-pyrrolizin-7a(5H)-yl)methoxy)-7-(5-methyl-1H-indazol-4-yl)pyrido[4,3-d]pyrimidine] | 10.8 µM
Cc1cccc2cccc(-c3ncc4c(N5C[C@H]6CC[C@@H](C5)N6)nc(OC[C@@H]5CCCN5C)nc4c3F)c12 [Example 15, 4-((1R,5S)-3,8-diazabicyclo[3.2.1]octan-3-yl)-8-fluoro-7-(8-methylnaphthalen-1-yl)-2-(((S)-1-methylpyrrolidin-2-yl)methoxy)pyrido[4,3-d]pyrimidine] | > 16.7 µM
